Drawing on patent EP2997966A1, “Naphthyl Sulfonamide Pyrrolidine Derivatives as KEAP-1 Modulators for the Treatment of Diabetes, Obesity, Dyslipidemia and Related Disorders” (SANOFI, priority 2014, dated 2016), this text covers IC50 for 32 compounds.

T1 sequence (Q14145 321-609): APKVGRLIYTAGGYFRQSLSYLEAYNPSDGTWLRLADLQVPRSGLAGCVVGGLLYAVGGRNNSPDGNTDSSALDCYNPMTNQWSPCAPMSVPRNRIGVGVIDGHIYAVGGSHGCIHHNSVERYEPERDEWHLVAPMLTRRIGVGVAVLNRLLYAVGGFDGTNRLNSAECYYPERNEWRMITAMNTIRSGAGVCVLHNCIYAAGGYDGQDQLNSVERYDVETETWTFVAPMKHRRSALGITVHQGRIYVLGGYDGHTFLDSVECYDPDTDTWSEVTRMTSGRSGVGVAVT

The first assay addresses T1, human Keap1 kelch domain (amino acids Ala321-Thr609) (Homo sapiens, UniProt Q14145).
T1 construct: human Keap1 kelch domain (amino acids Ala321-Thr609)
Kind of assay: Keap1-Nrf2 peptide binding assay (fluorescence polarisation). To be noted: binding to fluorescently labeled human Nrf2 peptide; 20 nM Keap1 kelch domain, 50 nM peptide. On the procedure: Keap1-Nrf2 peptide binding assay
Two microliters of test compound in reaction buffer (phosphate-buffered saline, 2 mM DL-dithiothreitol, 0.015 % (v/v) Brij-35) containing 6 % (v/v) DMSO were mixed with two microliters of the Keap1 kelch domain in reaction buffer in a black 384-well small volume microtiter plate and incubated at ambient temperature for 15 minutes. Thereafter, two microliters were added of the fluorescently labeled Nrf2 peptide in reaction buffer, and the mixture was incubated for a further 30 minutes at ambient temperature. Final concentrations of the Keap1 kelch domain and the fluorescently labeled Nrf2 peptide were 20 nM and 50 nM, respectively.
Fluorescence polarization (FP) was measured at excitation and emission wavelengths of 635 nm and 660 nm, respectively. Positive controls for binding (two microliters of reaction buffer containing 6 % (v/v) DMSO instead of test compound in the same buffer) and negative controls (as positive controls, but without Keap1 kelch domain) were included on each microtiter plate.
(In general: In fluorescence polarisation assays a small probe gives low polarisation when free and higher when bound to something large.)
A word on the IC50: it is the midpoint of a concentration-inhibition curve. `Cc1cc(C)c(C)c(S(=O)(=O)Nc2ccc(N3CCCC(C(=O)O)C3)c3ncccc23)c1C` (centres unmarked) [Example 15, 1-[5-[(2,3,5,6-tetramethylphenyl)sulfonylamino]-8-quinolyl]piperidine-3-carboxylic acid; 2,2,2-trifluoroacetic acid] yielded an IC50 of 24 µM. `O=C(O)[C@H]1CCN(c2ccc(NS(=O)(=O)c3cccc(Cl)c3Cl)c3ccccc23)C1` [Example 20, (3S)-1-[4-[(2,3-dichlorophenyl)sulfonylamino]-1-naphthyl]pyrrolidine-3-carboxylic acid]: the IC50 stood at 8.6 µM. The compound `Cc1nn(C)c(C)c1S(=O)(=O)Nc1ccc(N2CC[C@H](C(=O)O)C2)c2ccccc12` [Example 22, (3S)-1-[4-[(1,3,5-trimethylpyrazol-4-yl)sulfonylamino]-1-naphthyl]pyrrolidine-3-carboxylic acid] returned an IC50 of 4.5 µM. Turning to `O=C(O)[C@H]1CCN(c2ccc(NS(=O)(=O)c3ccc(Cl)c(C(F)(F)F)c3)c3ccccc23)C1` [Example 23, (3S)-1-[4-[[4-chloro-3-(trifluoromethyl)phenyl]sulfonylamino]-1-naphthyl]pyrrolidine-3-carboxylic acid], the IC50 was 8.5 µM. On the same count and under the same terms, next, `Cc1nc(C)c(S(=O)(=O)Nc2ccc(N3CC[C@H](C(=O)O)C3)c3ccccc23)s1` [Example 24, (3S)-1-[4-[(2,4-dimethylthiazol-5-yl)sulfonylamino]-1-naphthyl]pyrrolidine-3-carboxylic acid]: 4.3 µM; `Cc1nn(-c2ccccc2)c(C)c1S(=O)(=O)Nc1ccc(N2CC[C@H](C(=O)O)C2)c2ccccc12` [Example 25, (3S)-1-[4-[(3,5-dimethyl-1-phenyl-pyrazol-4-yl)sulfonylamino]-1-naphthyl]pyrrolidine-3-carboxylic acid]: 4.1 µM.

As to `Cc1ccc(Cl)cc1S(=O)(=O)Nc1ccc(N2CC[C@H](C(=O)O)C2)c2ccccc12` [Example 26, (3S)-1-[4-[(5-chloro-2-methylphenyl)sulfonylamino]-1-naphthyl]pyrrolidine-3-carboxylic acid], the IC50 came out at 8.1 µM. In turn, `O=C(O)[C@H]1CCN(c2ccc(NS(=O)(=O)c3cc(Cl)ccc3Cl)c3ccccc23)C1` [Example 28, (3S)-1-[4-[(2,5-dichlorophenyl)sulfonylamino]-1-naphthyl]pyrrolidine-3-carboxylic acid] gave a concentration for half-maximal inhibition (IC50) of 5.8 µM. In turn, `Cc1nn(C)c(C)c1S(=O)(=O)Nc1ccc(N2CC[C@@H](C(=O)O)C2)c2ccccc12` [Example 38, (3R)-1-[4-[(1,3,5-trimethylpyrazol-4-yl)sulfonylamino]-1-naphthyl]pyrrolidine-3-carboxylic acid] displayed an IC50 of 0.9 µM. The same measure, in the same setting: next, `Cc1nc(C)c(S(=O)(=O)Nc2ccc(N3CC[C@@H](C(=O)O)C3)c3ccccc23)s1` [Example 41, (3R)-1-[4-[(2,4-dimethylthiazol-5-yl)sulfonylamino]-1-naphthyl]pyrrolidine-3-carboxylic acid]: 1.6 µM.

Still in this assay, the particulars now being: binding to fluorescently labeled human Nrf2 peptide; 20 nM Keap1 kelch domain, 50 nM peptide; read-out: IC50.
Consider `Cc1cc(C)c(C)c(S(=O)(=O)Nc2ccc(C3CCCC3C(=O)O)c3ccccc23)c1C` (centres unmarked) [Example 1, 2-[4-[(2,3,5,6-tetramethylphenyl)sulfonylamino]-1-naphthyl]cyclopentanecarboxylic acid], for which the IC50 is 3.1 µM.

`Cc1nn(C)c(Cl)c1S(=O)(=O)Nc1ccc(N2CCC(C(=O)O)C2)c2ccccc12` (centres unmarked) [Example 4, 1-[4-[(5-chloro-1,3-dimethyl-pyrazol-4-yl)sulfonylamino]-1-naphthyl]pyrrolidine-3-carboxylic acid]: the IC50 amounted to 1.2 µM. `Cc1cc(C)c(C)c(S(=O)(=O)Nc2ccc(N3CCCC(C(=O)O)C3)c3ccccc23)c1C` (centres unmarked) [Example 5, 1-[4-[(2,3,5,6-tetramethylphenyl)sulfonylamino]-1-naphthyl]piperidine-3-carboxylic acid; 2,2,2-trifluoroacetic acid]: the IC50 amounted to 0.5 µM. Take `Cc1cc(C)c(C)c(S(=O)(=O)Nc2ccc(N3CCC(C)(C(=O)O)C3)c3ccccc23)c1C` (centres unmarked) [Example 9, 3-methyl-1-[4-[(2,3,5,6-tetramethylphenyl)sulfonylamino]-1-naphthyl]pyrrolidine-3-carboxylic acid]: the half-maximal inhibitory concentration (IC50) was 0.8 µM. `Cc1nn(C)c(Cl)c1S(=O)(=O)Nc1ccc(N2CCC(C)(C(=O)O)C2)c2ccccc12` (centres unmarked) [Example 10, 1-[4-[(5-chloro-1,3-dimethyl-pyrazol-4-yl)sulfonylamino]-1-naphthyl]-3-methyl-pyrrolidine-3-carboxylic acid]: the IC50 stood at 1 µM.

Turning to `CCCCn1cc(S(=O)(=O)Nc2ccc(N3CC[C@H](C(=O)O)C3)c3ccccc23)c(C)n1` [Example 11, (3S)-1-[4-[(1-butyl-3-methyl-pyrazol-4-yl)sulfonylamino]-1-naphthyl]pyrrolidine-3-carboxylic acid], the IC50 turned out to be 5 µM.

On to `O=C(O)[C@@H]1CCN(c2ccc(NS(=O)(=O)c3ccc(Cl)cc3Cl)c3ccccc23)C1` [Example 12, (3R)-1-[4-[(2,4-dichlorophenyl)sulfonylamino]-1-naphthyl]pyrrolidine-3-carboxylic acid], for which the IC50 was 1.3 µM. Regarding `CCCCn1cc(S(=O)(=O)Nc2ccc(N3CC[C@@H](C(=O)O)C3)c3ccccc23)c(C)n1` [Example 13, (3R)-1-[4-[(1-butyl-3-methyl-pyrazol-4-yl)sulfonylamino]-1-naphthyl]pyrrolidine-3-carboxylic acid], the concentration for half-maximal inhibition (IC50) worked out at 2.3 µM. For `Cc1c(Cl)cccc1S(=O)(=O)Nc1ccc(N2CC[C@H](C(=O)O)C2)c2ccccc12` [Example 16, (3S)-1-[4-[(3-chloro-2-methylphenyl)sulfonylamino]-1-naphthyl]pyrrolidine-3-carboxylic acid], the IC50 was 2.9 µM.

Take `O=C(O)[C@H]1CCN(c2ccc(NS(=O)(=O)c3cc(Cl)cc(Cl)c3)c3ccccc23)C1` [Example 17, (3S)-1-[4-[(3,5-dichlorophenyl)sulfonylamino]-1-naphthyl]pyrrolidine-3-carboxylic acid]: the IC50 worked out at 2.9 µM. For `O=C(O)[C@H]1CCN(c2ccc(NS(=O)(=O)c3cc(Cl)sc3Cl)c3ccccc23)C1` [Example 18, (3S)-1-[4-[(2,5-dichloro-3-thienyl)sulfonylamino]-1-naphthyl]pyrrolidine-3-carboxylic acid], the IC50 is 9 µM. Consider `O=C(O)[C@H]1CCN(c2ccc(NS(=O)(=O)c3ccc(Cl)cc3Cl)c3ccccc23)C1` [Example 19, (3S)-1-[4-[(2,4-dichlorophenyl)sulfonylamino]-1-naphthyl]pyrrolidine-3-carboxylic acid], for which the IC50 was found to be 6.2 µM. In the case of `COc1ccc(F)c(S(=O)(=O)Nc2ccc(N3CC[C@H](C(=O)O)C3)c3ccccc23)c1` [Example 27, (3S)-1-[4-[(2-fluoro-5-methoxyphenyl)sulfonylamino]-1-naphthyl]pyrrolidine-3-carboxylic acid], the IC50 was 7.1 µM. Still for that read-out and setting: next, `Cc1c(S(=O)(=O)Nc2ccc(N3CC[C@H](C(=O)O)C3)c3ccccc23)cnn1CC(C)C` [Example 29, (3S)-1-[4-[(1-isobutyl-5-methyl-pyrazol-4-yl)sulfonylamino]-1-naphthyl]pyrrolidine-3-carboxylic acid]: 7 µM. Regarding `Cc1c(S(=O)(=O)Nc2ccc(N3CC[C@H](C(=O)O)C3)c3ccccc23)cnn1C1CCCC1` [Example 30, (3S)-1-[4-[(1-cyclopentyl-5-methyl-pyrazol-4-yl)sulfonylamino]-1-naphthyl]pyrrolidine-3-carboxylic acid], the IC50 amounted to 4.1 µM. As to `CC(=O)Nc1nc(C)c(S(=O)(=O)Nc2ccc(N3CC[C@@H](C(=O)O)C3)c3ccccc23)s1` [Example 31, (3R)-1-[4-[(2-acetamido-4-methyl-thiazol-5-yl)sulfonylamino]-1-naphthyl]pyrrolidine-3-carboxylic acid], the concentration for half-maximal inhibition (IC50) was found to be 1.9 µM. For the compound `Cc1c(Cl)cccc1S(=O)(=O)Nc1ccc(N2CC[C@@H](C(=O)O)C2)c2ccccc12` [Example 32, (3R)-1-[4-[(3-chloro-2-methylphenyl)sulfonylamino]-1-naphthyl]pyrrolidine-3-carboxylic acid], the IC50 was 0.8 µM. As to `O=C(O)[C@@H]1CCN(c2ccc(NS(=O)(=O)c3cc(Cl)cc(Cl)c3)c3ccccc23)C1` [Example 33, (3R)-1-[4-[(3,5-dichlorophenyl)sulfonylamino]-1-naphthyl]pyrrolidine-3-carboxylic acid], the IC50 was 1.7 µM. With `O=C(O)[C@@H]1CCN(c2ccc(NS(=O)(=O)c3cc(Cl)sc3Cl)c3ccccc23)C1` [Example 34, (3R)-1-[4-[(2,5-dichloro-3-thienyl)sulfonylamino]-1-naphthyl]pyrrolidine-3-carboxylic acid], the IC50 was 2.9 µM. Take `O=C(O)[C@@H]1CCN(c2ccc(NS(=O)(=O)c3cccc(Cl)c3Cl)c3ccccc23)C1` [Example 35, (3R)-1-[4-[(2,3-dichlorophenyl)sulfonylamino]-1-naphthyl]pyrrolidine-3-carboxylic acid]: the 50% inhibitory concentration (IC50) amounted to 1.8 µM. Take `Cc1c(S(=O)(=O)Nc2ccc(N3CC[C@@H](C(=O)O)C3)c3ccccc23)cnn1-c1ccccc1` [Example 39, (3R)-1-[4-[(5-methyl-1-phenyl-pyrazol-4-yl)sulfonylamino]-1-naphthyl]pyrrolidine-3-carboxylic acid]: the IC50 came out at 6.5 µM.

Consider `O=C(O)[C@@H]1CCN(c2ccc(NS(=O)(=O)c3ccc(Cl)c(C(F)(F)F)c3)c3ccccc23)C1` [Example 40, (3R)-1-[4-[[4-chloro-3-(trifluoromethyl)phenyl]sulfonylamino]-1-naphthyl]pyrrolidine-3-carboxylic acid], for which the half-inhibitory concentration (IC50) came to 5 µM.
